Where two headings read alike, the source gives them in different places.
B1: TIRC7 protein: in vitro translated T-cell immune response cDNA 7 (TIRC7) protein (protein, UniProt Q13488 1-830, looked up)
V-type proton ATPase 116 kDa …: MGSMFRSEEVALVQLFLPTAAAYTCVSRLGELGLVEFRDLNASVSAFQRRFVVDVRRCEELEKTFTFLQEEVRRAGLVLPPPKGRLPAPPPRDLLRIQEETERLAQELRDVRGNQQALRAQLHQLQLHAAVLRQGHEPQLAAAHTDGASERTPLLQAPGGPHQDLRVNFVAGAVEPHKAPALERLLWRACRGFLIASFRELEQPLEHPVTGEPATWMTFLISYWGEQIGQKIRKITDCFHCHVFPFLQQEEARLGALQQLQQQSQELQEVLGETERFLSQVLGRVLQLLPPGQVQVHKMKAVYLALNQCSVSTTHKCLIAEAWCSVRDLPALQEALRDSSMEEGVSAVAHRIPCRDMPPTLIRTNRFTASFQGIVDAYGVGRYQEVNPAPYTIITFPFLFAVMFGDVGHGLLMFLFALAMVLAENRPAVKAAQNEIWQTFFRGRYLLLLMGLFSIYTGFIYNECFSRATSIFPSGWSVAAMANQSGWSDAFLAQHTMLTLDPNVTGVFLGPYPFGIDPIWSLAANHLSFLNSFKMKMSVILGVVHMAFGVVLGVFNHVHFGQRHRLLLETLPELTFLLGLFGYLVFLVIYKWLCVWAARAASAPSILIHFINMFLFSHSPSNRLLYPRQEVVQATLVVLALAMVPILLLGTPLHLLHRHRRRLRRRPADRQEENKAGLLDLPDASVNGWSSDEEKAGGLDDEEEAELVPSEVLMHQAIHTIEFCLGCVSNTASYLRLWALSLAHAQLSEVLWAMVMRIGLGLGREVGVAAVVLVPIFAAFAVMTVAILLVMEGLSAFLHALRLHWVEFQNKFYSGTGYKLSPFTFAATDD
modifications: in vitro translated
notes: in vitro translated T-cell immune response cDNA 7 (TIRC7) protein

Columns and labels:
PHA-stimulated PBMC = assay: Radioactive proliferation assay, incorporation of 3H-thymidine, TIRC7-peptides; type: cell-based, human; details: PHA stimulation, 48 h, 3H-thymidine incorporation
Protocol: PBMC of healthy donors were isolated according to the Ficoll-Paque density centrifugation protocol. Samples of 50000 PBMC's/well were stimulated with PHA (1 μg/ml) and incubated for 48 h at 5% CO2, 37° C. in presence of TIRC7-peptides (see FIG. 4(B)) and controls (BSA) in a total volume of […]. Samples were run in triplicates on 96 well-microtiter-plates (MTP's). After 48 h 0.5 μCi ^3H-thymidine per well were added and the cells were reincubated for additional 18 h. Cells were harvested and lysed using a cell harvester and collected on nitrocellulose-filter-MTP's. Plates were dried at room temperature for 3 h. To enhance the radioactive signal produced by the samples a scintillation fluid was added and counts per minute were measured with a beta counter.

activated T-cells = details: alloactivation in mixed lymphocyte culture (MLR) or mitogens, Utku et al., Immunity 1998, cited from earlier work

Molecule	inhibition of proliferation of PHA-stimulated PBMC (PHA-stimulated PBMC; FIG. 5)	inhibition of proliferation of PHA-stimulated PBMC (PHA-stimulated PBMC; FIG. 5, listed as SEQ ID NO: 11)	suppression of proliferation of T-cells (activated T-cells)	suppression of proliferation of T-cells (activated T-cells; listed as protein TIRC7)
P4: TIRC7-derived peptide (FIG. 4(B)), the one of 6 without significant inhibition of proliferation (VEFQNKFYSGTGYK; listed as Homo sapiens)	except peptide P4 all TIRC7-peptides inhibited proliferation	weaker if any activity	–	–
B1	–	–	efficiently suppress in a dose dependent manner	signifincantly suppressed
